Where “and” joins values, the source holds several entries; their conditions need not be identical. Equal values may be shown once. Entries after “also recorded” stand apart in the source; their conditions may differ. Read-outs that look alike come from different tables or passages of the source.
Assays:
[1] = system: NMDA-treated primary hippocampal neurons; experiment: NMDA-triggered LDH release in primary hippocampal neuron culture; conditions: for effect of SC144 on the protection by compounds 2 or 8 against NMDA-evoked excitotoxicity (LDH): SC144 pretreatment/co-treatment with compound 2 or 8; for effect on NMDA-triggered LDH release (in words): 10 μM, 16 h pretreatment, NMDA 100 μM, 2.5 h, compared with NMDA alone
Text: In this study, the cytotoxicity of NMDA was quantified by measuring the activity of lactate dehydrogenase (LDH) released from the cultured neurons into the medium and confirmed by living cell density analysis using calcein staining. […] MK-801, a noncompetitive antagonist of NMDA receptor, was used as a control [Wong et al., 1986, Proc. Natl. Acad. Sci. U.S.A., 83(18):7104].
(§1) In the present study, primary cultures of hippocampal neurons from E15-16 mouse embryos (C57BL/6) were used. The culture was made according to a previously described protocol with minor modifications [Bilousova et al. 2006, J. Neurochem. 97(1):44]. Hippocampi were isolated in ice-cold D-Hanks buffer containing (in mM: NaCl 136.7, KCl 5.4, NaHCO3 4.2, KH2PO4 0.4, NaH2PO4 0.6, glucose 5.6, and pH 7.4). In order to achieve a single cell suspension, hippocampal tissues were treated with papain (0.5 μg/mL) and Dnase (0.6 μg/mL) for 20 min at 37° C., followed by mechanical dissociation in complete media (Neurobasal medium supplemented with B27 (Invitrogen), 25 μM glutamate, and 1% penicillin-streptomycin). The cells were plated on poly-DL-ornithine (0.5 mg/mL), and laminin (5 μg/mL) pre-coated 96-well plates (Costar) at density 1×10^5 cells/mL and maintained in a humidified 5% CO2 incubator at 37° C. The proliferations of non-neuronal cells were limited by 48 h treatment with cytosine arabinoside (10 μM) started on first day in vitro (DIV1). All experiments were performed at 9 DIV cells.
Hippocampal neurons isolated from embryos were cultured for 8 days before treatment with chemical modulators (compounds). […] Briefly, the cells were washed three times with prewarmed Locke's buffer containing (in mM: NaCl 154, KCl 5.6, NaHCO3 3.6, CaCl2 2.3, MgCl2 1.2, glucose 5.6, HEPES 5, and pH 7.4) to remove traces of growth medium. […] The incubation was terminated by removal of compound-containing buffer, followed by washing with prewarmed drug-free Locke's buffer containing 1 mM Mg^2+.
Assessment of cell damage was done by measuring the LDH activity in the culture medium. The experiment was performed per the manufacturer's protocol (Promega). Release LDH levels were expressed as a percentage compared with that of the DMSO control group (100%).

[2] = system: NMDA-treated hippocampal neurons; experiment: Calcein staining, density of living neurons under NMDA-induced excitotoxicity; format: cell-based, mouse; conditions: 10 μM pretreatment, NMDA 100 μM, 2.5 h
Text: Calcein staining was employed to evaluate the density of living neurons. A highly lipophilic non-fluorescent and cell permeable compound, calcein-acetoxymethyl ester (calcein-AM) was used for staining. Calcein-AM can be converted by intracellular esterases into calcein, an anionic fluorescent form, only labeling viable cells, and thus provides both morphological and functional information about undamaged cells.
as §1
Hippocampal neurons isolated from embryos were cultured for 8 days before treatment with chemical modulators (compounds). […]
A highly lipophilic non-fluorescent and cell permeable compound, calcein-acetoxymethyl ester (calcein-AM) was used to determine cell viability. […] Fluorescent images of live cells were collected using Lionheart FX automated digital microscope equipped with 4× objective and GFP filter cube (469/525); data was processed and analyzed using Gen5 software v. […]

[3] = Pharmacokinetic study, brain and plasma levels in mice; format: in vivo, mouse; conditions: for Cmax: mouse, brain
Protocol: Since any potential therapeutic for AD needs to cross the blood-brain barrier (BBB), we further evaluated the brain permeability of Gp130 compound 2 in mice. Mice were dosed orally at 10 or 30 mg/kg, or injected subcutaneously (SQ) at 10 mg/kg, and euthanized after 1, 2, 4, 6, and 8 hours post-dose. […] The brain to plasma ratio for compound 2 was ˜4:1 for oral 30 mg/kg; and […] for 10 mg/kg SQ injection. Based on the oral brain levels of compound 2 we will conduct proof-of-concept testing in a mouse model of NMDA-induced toxicity in future studies.
The brain penetrance and plasma levels of compound 2 were assessed in a pharmacokinetic (PK) study comprising oral dosing (30 mg/kg and 10 mg/kg) and subcutaneous (sub-Q, 10 mkd) injection. For each route and dose, 5 adult wildtype mice received either 5 μL of a 50 mg/ml stock in 100% DMSO mixed 50:50 with flavoring to give 10 μL total for 10 mg/kg oral; or 10 μL of a 75 mg/ml stock in 100% DMSO mixed 50:50 with flavoring to give 20 μL final for 30 mg/kg oral; or were injected with 50 μL of a 5 mg/ml stock in 100% DMSO for sub-Q 10 mg/kg, Mice were euthanized by ketamine/xylazine over-anesthesia at 1, 2, 4, 6, and 8 h post-dosing, and blood collected by cardiac puncture. The mice were then perfused with saline and brain tissue dissected and snap frozen on dry ice. Blood was centrifuged at 3000 rpm for 10 min and the plasma supernatant was collected. Both plasma and the right hemi-brain were sent to Integrated Analytical Solutions (IAS, Berkeley, Calif.) with a reference sample of compound for compound level analysis in tissue and plasma. The compound levels were determined using a LC-MS/MS approach.

[4] = system: pTyr-STAT3 in SH-SY5Y cells; experiment: pSTAT3 AlphaLISA in SH-SY5Y cells; format: cell-based, human; conditions: 30 minutes, 1 μM
Protocol: Accordingly, the human neuroblastoma cell line SH-SY5Y was used, known to express the IL-6 receptor, […] to determine JAK-STAT activation as reflected by increases in pSTAT3. In the studies set forth in FIG. 2, cells were treated for 30 minutes with potential agonists PA1, PA2, and PA3; and then lysates were analyzed using the Sure-Fire Perkin-Elmer AlphaLISA for pTyr-STAT3.

human chondrocytes = conditions: cited from earlier work

Compound: O=C(NNc1nc2cc(F)ccc2n2cccc12)c1cnccn1 [SC144]
- effect of SC144 on the protection by compounds 2 or 8 against NMDA-evoked excitotoxicity (LDH) [1]: prevented compound 2 rescue; also recorded: prevented this rescue
- effect of SC144 on the protection by compounds 2 or 8 against NMDA-evoked excitotoxicity (LDH) ([1]; listed as SC-144): abated the protection

Compound: Fc1ccc(Nc2nc(-c3ccc(F)cc3)cs2)cc1 [Compound 8, N,4-bis(4-fluorophenyl)thiazol-2-amine]
- effect on NMDA-triggered LDH release (in words) [1]: rescued LDH; also recorded: greatest decrease

Compound: Brc1ccc(Nc2nc(-c3cccnc3)cs2)cc1 [Compound 4, N-(4-bromophenyl)-4-(pyridin-3-yl)thiazol-2-amine]
- effect on NMDA-triggered LDH release (in words) [1]: greatest decrease

Compound: HNG: potent HN analog, HN with a substitution of serine 14 to glycine (MAPRGFSCLLLLTGEIDLPVKRRA; UniProt Q8IVG9 1-24, looked up, variant S14G)
- effect on NMDA-triggered LDH release (in words) [1]: significance

Compound: HN: 24-amino acid bioactive peptide encoded in the mitochondrial genome by the gene MT-RNR2
- effect on NMDA-triggered LDH release (in words) [1]: non-significance; also recorded: only one of them was active
- effect on neurons which were not treated with NMDA ([1]; no NMDA): Neither HN itself nor the compounds had effect

Compound: Fc1ccc(Nc2nc(-c3ccccc3)cs2)cc1 [Compound 2, N-(4-fluorophenyl)-4-phenylthiazol-2-amine]
- density of living neurons (calcein staining) [2]: significance
- density of living neurons (calcein staining) ([2]; listed as compound 2): no difference in density of living neurons
- oral brain permeability (in words) [3]: good oral brain permeability
- oral bioavailability (in words) ([3]; dose of 30 mg/kg): orally bioavailable
- Cmax ([3]; po, 10 mg/kg, oral 10 mg/kg, at 1 h, read-out: Cmax for brain): ~18 ng/g
- Cmax ([3]; po, 30 mg/kg, oral 30 mg/kg, at 1 h post dose, read-out: Cmax for brain): ~570 nM and 156 ng/g
- Cmax ([3]; po, 30 mg/kg, oral 30 mg/kg, read-out: Cmax): 570 nM
- Cmax ([3]; subcutaneous, 10 mg/kg, SQ 10 mg/kg, at 2 h, read-out: Cmax for brain): 161 ng/g
- effect on NMDA-triggered LDH release (in words) [1]: greatest decrease
- effect on NMDA-triggered LDH release (in words) ([1]; listed as compound 2): rescued the LDH increase
- pSTAT3 levels over DMSO control [4]: increased pSTAT3

Compound: Brc1ccc(Nc2nc(-c3ccccc3)cs2)cc1 [Compound 1, N-(4-bromophenyl)-4-phenylthiazol-2-amine]
- apoptosis of human chondrocytes (human chondrocytes): reduce apoptosis of human chondrocytes
- pSTAT3 (human chondrocytes): increase pSTAT3

Compound: Fc1ccc(Nc2nc(-c3ccccc3)cs2)c(F)c1 [Compound 5, N-(2,4-difluorophenyl)-4-phenylthiazol-2-amine]
- effect on NMDA-triggered LDH release (in words) [1]: greatest decrease

Compound: C[C@]12N[C@H](Cc3ccccc31)c1ccccc12 [MK801, reference compound]
- density of living neurons (calcein staining) [2]: significance
- effect on NMDA-triggered LDH release (in words) [1]: rescued the LDH increase

Compound: Brc1ccc(Nc2nc(-c3ccccc3)cs2)cc1 [compound 1 (PA1)]
- Gp130 agonism (human chondrocytes; Shkhyan et al. submitted manuscript): Gp130 agonist
